According to patent US20250325524A1, “COMPOSITIONS AND METHODS FOR TREATING RENAL INJURY” (CASE WESTERN RESERVE UNIVERSITY, priority 2018, published 2025):

Columns and labels:
[1] = tested on: PGE2 receptors (EP1, EP2, EP3 and EP4) and adenosine receptor (A2A); assay: renal IRI model: PGE2 receptors (EP1-EP4) and adenosine A2A receptor levels; format: in vivo, mice
Method: (§1) Mice were anesthetized with isoflurane using a vaporizer and placed on a heating pad to maintain their body temperature at 37° C. Both renal arteries were identified through dorsal incisions and clamped for 20, 30, 35, or 37 minutes. Reperfusion was confirmed visually upon release of the clamps. Surgical wounds were closed, and mice were administered 1 mL of saline i.p. The mice were kept in a warm incubator until they regained consciousness and were allowed to recover with ad libitum access to food and water. […] Serum and kidney tissue were collected 24 hours after renal IRI.
PGE2 receptors (EP1, EP2, EP3 and EP4) and adenosine receptor (A2A) mRNA levels were determined by real-time PCR with SYBR green PCR Master Mix and the primers listed in Table 1. Their protein levels were determined by western blotting assay and immunofluorescence analysis.

[2] = stability on incubation with hepatocyte cell lines; format: in vitro ADME
PGE2 levels = assay: renal IRI model: time course of PGE2 in kidney tissue and serum; format: in vivo, mice
Method: as §1
(§2) […] Next, the kidney tissues (˜20 mg) were homogenized in 500 μL of cold PBS containing indomethacin (10 μg/mL) using a tissue homogenizer. The suspension was sonicated in an ice-water bath for 1 minute using cycles of 10 seconds of sonication with 10 seconds of cooling, and they were then centrifuged for 10 minutes at 12,000 rpm. The supernatant was collected for PGE2 assay. Protein concentrations were determined by BCA assay (23225; Thermo Scientific). The PGE2 level in the supernatant was measured using a PGE2 ELISA Kit (SKGE004B; R&D Systems) in triplicate. PGE2 levels were expressed as ng PGE2/mg protein.

[3] = tested on: PGE2 production by cell lines; assay: PGE2 production by cell lines; format: cell-based
[4] = tested on: endogenous PGE2 levels in kidney tissue; assay: endogenous PGE2 levels in kidney tissue after i.p. injection; format: in vivo; details: mice
Method: as §2

mice = assay: toxicity after IP injection into mice
[5] = chemical stability in aqueous solutions; format: physicochemical; details: over broad pH range
mice with ischemic AKI [6] = assay: renal ischemia-reperfusion injury model: renal function (serum creatinine, NGAL, KIM-1); format: in vivo; details: IRI mice, single pre-IRI dose
[7] = tested on: cAMP/AMP/adenosine signaling pathway; assay: renal IRI model: cAMP, AMP and adenosine levels; format: in vivo; details: IRI mice
Method: as §1
After reperfusion for 24 hours, kidney tissues were harvested, homogenized in 10 volumes of 0.1 M HCl, and centrifuged for 10 minutes at 12,000 rpm. The protein concentration was determined by BCA assay. cAMP levels in kidney tissues were measured using a cAMP Complete ELISA Kit (ADI-900-163; Enzo Life Science) an adenosine Assay Kit (KA4547; abnova) and high-performance liquid chromatography (HPLC).

malondialdehyde (MDA) = assay: renal IRI model: malondialdehyde (MDA) in kidney tissue; format: in vivo; details: IRI mice, single pre-IRI dose; vehicle peak 48% at 2 hours
Method: Mice were anesthetized with isoflurane using a vaporizer and placed on a heating pad to maintain their body temperature at 37° C. Both renal arteries were identified through dorsal incisions and clamped for 20, 30, 35, or 37 minutes. Reperfusion was confirmed visually upon release of the clamps. Surgical wounds were closed, and mice were administered 1 mL of saline i.p. The mice were kept in a warm incubator until they regained consciousness and were allowed to recover with ad libitum access to food and water. […]
Reactive oxygen species (ROS) levels were determined by measurement of malondialdehyde (MDA), the end product of lipid peroxidation in […]. Free MDA reacts with thiobarbituric acid (TBA) at 95° C. to generate an MDA-TBA adduct, which can be quantified colorimetrically at a wavelength of 532 nm. MDA levels were measured in kidney lysates using a lipid peroxidation (MDA) assay kit (ab118970; Abcam). Results were corrected for total protein level and are expressed as […].

[8] = stability on incubation with hepatocyte extracts; format: in vitro ADME
[9] = tested on: renal arterioles in the outer medulla; assay: renal vasodilatation in the outer medulla (α-SMA-positive arteriole area); format: in vivo, mice; details: α-SMA staining
Method: as §1
To quantify vasodilation, the inner arteriole area of the outer medulla was determined using α-SMA-stained sections. After counterstaining with Mayer's hematoxylin, the inner area of α-SMA-positive vessels in the outer medulla (×25) was measured using ImageJ. The results are expressed as average areas of renal arteries outer medulla.

mice with ischemic AKI [10] = assay: renal ischemia-reperfusion injury model: renal function (serum creatinine, NGAL, KIM-1); format: in vivo; details: IRI-30 min, 24 hours reperfusion
Method: as §1
Renal function was assessed by determining the serum levels of creatinine (KB02-H1; Arbor Assays), Lipocalin-2 (NGAL; MLCN20; R&D Systems), and kidney injury molecule-1 (KIM-1; MKM100; R&D Systems) after reperfusion for 24 h.

mice with ischemic AKI [11] = assay: survival and body weight over 7 days after renal IRI; format: in vivo; details: bilateral IRI 30 minutes, 5 mg/kg i.p. once pre-IRI then twice daily for 7 days
Method: (A) Experimental setup for toxicity. Ischemic AKI induced by bilaterally clamping the renal arteries for 30 minutes, followed by reperfusion. […] (n=10 per group). (B, C) Survival curves and body weight over 7 days. Kaplan-Meier analysis of survival stratified by AKI stage. Data are means±SEM. *P<0.05 vs. corresponding BI30_vehicle.

[12] = IRI mice, pretreatment, 0.5 hours, mRNA in kidney tissue
[13] = kidney tissue, in comparison to sham and to IRI mice
[14] = 5 mg/kg 1 hour before, immediately after, and 12 hours after IRI, vs IRI-vehicle

## CCCC[S+]([O-])c1sc2nc(-c3cccs3)cc(-c3ccccc3)c2c1N (centres unmarked) [SW033291]
[1]; [12]
  increase of A2A receptor over baseline: 1.6 fold
  increase of EP4 receptor over baseline: 2.4 fold
[1]; kidney tissue, IRI mice
  EP1 receptor mRNA: without effecting
  EP2 receptor mRNA: without effecting
  EP3 receptor mRNA: without effecting
[1]; [13]
  increase of EP4 receptor mRNA and protein levels: up to 2.3 fold
  levels of the adenosine A2A receptor protein: induced
[2]
  chemical stability when incubated with hepatocyte cell lines: chemically stable
PGE2 levels; BI30 mice at 24 hours, prophylaxis
  serum PGE2 level: significantly decreased
PGE2 levels; IRI mice, single pre-IRI dose, kidney tissue
  post-IRI peaks of renal PGE2 at 0.5 and 14 hours: substantially block
PGE2 levels; mice, single pre-IRI dose, kidney tissue
  renal PGE2 peak over baseline before IRI: 5.12 fold
[3]
  PGE2 production by cell lines: increase PGE2 production by cell lines
[4]; 5 mg/kg i.p., 1 and 3 hours
  level of PGE2 in kidney tissue, time course: peaked at 1 hour at nearly twice as high as at baseline
[4]; 3 hours after i.p. 2.5 or 5 mg/kg, vs vehicle
  endogenous PGE2 levels in kidney tissue: in dose-dependent fashion, upregulated
mice; IP into mice at 0.3 μmole/per mouse twice daily for 21 days
  toxicity: no toxicity
mice; IP into mice at 0.6 μmole/per mouse
  immediate toxicity over 24 hours: no immediate toxicity
mice; IP into mice at 1.2 μmole/per mouse
  immediate toxicity over 24 hours: no immediate toxicity
[5]
  chemical stability in aqueous solutions: chemically stable
Mice with ischemic AKI [6]
  induction of KIM-1 (time course): notably effective blockade of induction
  induction of creatinine (time course): notably effective blockade of induction
Mice with ischemic AKI [6]; peak at 12 hours
  reduction of peak induction of NGAL: 20%
[7]
  levels of adenosine in the kidney: increased
  levels of serum adenosine: significantly increased
[7]; decrease after IRI vs sham
  AMP level in kidney tissue: substantially reversed
  cAMP level in kidney tissue: substantially reversed
Malondialdehyde (MDA)
  increase of malondialdehyde (MDA) above baseline: 14%
[8]
  chemical stability when incubated with hepatocyte extracts: chemically stable
[9]; IRI mice
  renal arteriole area in the outer medulla: significantly increased
[9]; normal mice
  renal arteriole area in the outer medulla: increased
Mice with ischemic AKI [10]; [14]
  serum KIM-1: significantly reducing
  serum NGAL: significantly reducing
  serum creatinine: significantly reducing
Mice with ischemic AKI [10]; 3 doses of 5 mg/kg
  renal protection from IRI (serum NGAL, creatinine, KIM-1): markedly protected kidney from IRI
Mice with ischemic AKI [11]
  body weight at POD7: regained greater weights than did vehicle treated mice
  survival: survived at 7 days
